Source: ChEMBL document CHEMBL5370649, “Novel Coumarin Derivatives Inhibit the Quorum Sensing System and Iron Homeostasis as Antibacterial Synergists against Pseudomonas aeruginosa” (J Med Chem, 2023)
Activity calls are given as the source filed them. The calls are words filed in the database; no cut-off is given here.

Columns and labels:
[1] = tested on: Pseudomonas aeruginosa; assay: Antibiofilm activity against Pseudomonas aeruginosa PAO1 in ABTGC medium assessed as inhibition of biofilm formation incubated for 24 hrs by crystal violet staining based absorbance assay; format: functional, organism-based; settings: PAO1, 24 h
[2] = tested on: Pseudomonas aeruginosa; assay: Antibacterial activity against Pseudomonas aeruginosa PAO1 in ABTGC medium assessed as bacterial growth inhibition incubated for 16 hrs; format: functional
[3] = tested on: Pseudomonas aeruginosa; assay: In vivo antibacterial activity against Pseudomonas aeruginosa PAO1 infected in Balb/c mouse wound infection model assessed as healing degree of wound at 0.005 mg/ml,TOP QD for 3 days and measured after 9 days; format: functional, organism-based; settings: time 3.0 day
[4] = tested on: Pseudomonas aeruginosa; assay: In vivo antibacterial activity against Pseudomonas aeruginosa PAO1 infected in Balb/c mouse wound infection model assessed as healing degree of wound at 0.5 mg/ml,TOP QD for 3 days and measured after 9 days; format: functional, organism-based; settings: time 3.0 day
[5] = Toxicity in Balb/c mouse wound infection model infected with Pseudomonas aeruginosa PAO1 assessed as morphological changes in kidney at 0.0025 to 0.5 mg/ml,TOP for 3 days by H and E staining based analysis; format: tissue-based; settings: in vivo, topical_or_ocular, 72 h, dose 0.0025-0.5 mg/ml, time 3 day
[6] = Toxicity in Balb/c mouse wound infection model infected with Pseudomonas aeruginosa PAO1 assessed as morphological changes in spleen at 0.0025 to 0.5 mg/ml,TOP for 3 days by H and E staining based analysis; format: tissue-based; settings: in vivo, topical_or_ocular, 72 h, dose 0.0025-0.5 mg/ml, time 3 day
[7] = Toxicity in Balb/c mouse wound infection model infected with Pseudomonas aeruginosa PAO1 assessed as morphological changes in heart at 0.0025 to 0.5 mg/ml,TOP for 3 days by H and E staining based analysis; format: tissue-based; settings: in vivo, topical_or_ocular, 72 h, dose 0.0025-0.5 mg/ml, time 3 day
[8] = Toxicity in Balb/c mouse wound infection model infected with Pseudomonas aeruginosa PAO1 assessed as morphological changes in lung at 0.0025 mg/ml,TOP for 3 days in presence of N-hydroxy-7-((6-methyl-2-oxo-2H-chromen-4-yl)oxy)heptanamide by H and E staining based analysis; format: tissue-based; settings: in vivo, topical_or_ocular, 72 h, time 3 day
[9] = Toxicity in Balb/c mouse wound infection model infected with Pseudomonas aeruginosa PAO1 assessed as morphological changes in heart at 0.0025 mg/ml,TOP for 3 days in presence of N-hydroxy-7-((6-methyl-2-oxo-2H-chromen-4-yl)oxy)heptanamide by H and E staining based analysis; format: tissue-based; settings: in vivo, topical_or_ocular, 72 h, time 3 day
[10] = Toxicity in Balb/c mouse wound infection model infected with Pseudomonas aeruginosa PAO1 assessed as body weight change at 0.0025 to 0.5 mg/ml,TOP for 3 days; settings: in vivo, topical_or_ocular, 72 h, dose 0.0025-0.5 mg/ml, time 3 day
[11] = Toxicity in Balb/c mouse wound infection model infected with Pseudomonas aeruginosa PAO1 assessed as morphological changes in liver at 0.0025 mg/ml,TOP for 3 days in presence of N-hydroxy-7-((6-methyl-2-oxo-2H-chromen-4-yl)oxy)heptanamide by H and E staining based analysis; format: tissue-based; settings: in vivo, topical_or_ocular, 72 h, time 3 day
[12] = Toxicity in Balb/c mouse wound infection model infected with Pseudomonas aeruginosa PAO1 assessed as body weight change at 0.0025 mg/ml,TOP for 3 days in presence of N-hydroxy-7-((6-methyl-2-oxo-2H-chromen-4-yl)oxy)heptanamide; settings: in vivo, topical_or_ocular, 72 h, time 3 day
[13] = Toxicity in Balb/c mouse wound infection model infected with Pseudomonas aeruginosa PAO1 assessed as morphological changes in kidney at 0.0025 mg/ml,TOP for 3 days in presence of N-hydroxy-7-((6-methyl-2-oxo-2H-chromen-4-yl)oxy)heptanamide by H and E staining based analysis; format: tissue-based; settings: in vivo, topical_or_ocular, 72 h, time 3 day
[14] = Toxicity in Balb/c mouse wound infection model infected with Pseudomonas aeruginosa PAO1 assessed as morphological changes in spleen at 0.0025 mg/ml,TOP for 3 days in presence of N-hydroxy-7-((6-methyl-2-oxo-2H-chromen-4-yl)oxy)heptanamide by H and E staining based analysis; format: tissue-based; settings: in vivo, topical_or_ocular, 72 h, time 3 day
[15] = Toxicity in Balb/c mouse wound infection model infected with Pseudomonas aeruginosa PAO1 assessed as morphological changes in lung at 0.0025 to 0.5 mg/ml,TOP for 3 days by H and E staining based analysis; format: tissue-based; settings: in vivo, topical_or_ocular, 72 h, dose 0.0025-0.5 mg/ml, time 3 day
[16] = Toxicity in Balb/c mouse wound infection model infected with Pseudomonas aeruginosa PAO1 assessed as morphological changes in liver at 0.0025 to 0.5 mg/ml,TOP for 3 days by H and E staining based analysis; format: tissue-based; settings: in vivo, topical_or_ocular, 72 h, dose 0.0025-0.5 mg/ml, time 3 day
[17] = tested on: Pseudomonas aeruginosa; assay: In vivo antibacterial activity against Pseudomonas aeruginosa PAO1 infected in Balb/c mouse wound infection model assessed as reduction in bacterial survival rate at wounded area at 0.5 mg/ml,TOP QD for 3 days by CFU assay; format: functional; settings: time 3 day
[18] = Metal chelating activity assessed as Fe3+-compound complex formation assessed as pFe(III) value by fluorescence method
[19] = tested on: Pseudomonas aeruginosa; assay: Inhibition of iron homeostasis in Pseudomonas aeruginosa PAO1 in ABTGC medium assessed as decrease in iron level at 1.25 to 20 uM in presence of FeCl3 by fluorescence based microplate reader analysis (Rvb= 9.6+/-2.00 microM); format: functional; settings: dose 1.25-20 µM

| Compound | IC50 [1] | MIC [2] | also measured |
| --- | --- | --- | --- |
| CCCCCCCOc1cc(=O)oc2ccc(C)cc12 | > 100 µM | > 256 µM |  |
| Cc1ccccc1OCCCCCCC(=O)NO | > 100 µM | > 256 µM |  |
| O=C(CCCCOc1cc(=O)oc2ccc(Br)cc12)NO | 29.7 µM | > 256 µM |  |
| O=C(CCCOc1cc(=O)oc2cc(Cl)ccc12)NO | 88.4 µM | > 256 µM |  |
| Cc1ccc2oc(=O)cc(OCc3ccc(C(=O)NO)cc3)c2c1 | > 100 µM | > 256 µM |  |
| Cc1ccc2oc(=O)cc(NCCCC(=O)NO)c2c1 | > 100 µM | > 256 µM |  |
| Cc1ccc2oc(=O)cc(OCCCCC(=O)NO)c2c1 | 12.8 µM | > 256 µM |  |
| O=C(CCCCCCOc1ccccc1)NO | > 100 µM | > 256 µM |  |
| O=C(CCCCCOc1cc(=O)oc2ccc(Br)cc12)NO | > 100 µM | > 256 µM |  |
| Cc1ccc2oc(=O)cc(OCCCC(=O)NO)c2c1 | 77.4 µM | > 256 µM |  |
| COc1ccc2oc(=O)cc(OCCCCCC(=O)NO)c2c1 | > 100 µM | > 256 µM |  |
| Cc1ccc2oc(=O)cc(OCCCCCCCCC(=O)NO)c2c1 | 20.4 µM | > 256 µM |  |
| CC[C@H]1OC(=O)[C@H](C)[C@@H](O[C@H]2C[C@@](C)(OC)[C@@H](O)[C@H](C)O2)[C@H](C)[C@@H](O[C@@H]2O[C@H](C)C[C@H](N(C)C)[C@H]2O)[C@](C)(O)C[C@@H](C)CN(C)[C@H](C)[C@@H](O)[C@]1(C)O [AZITHROMYCIN] | 17.3 µM |  |  |
| COc1ccc2oc(=O)cc(OCCCCC(=O)NO)c2c1 | > 100 µM | > 256 µM |  |
| Cc1ccc2c(OCCCCC(=O)NO)cc(=O)oc2c1 | > 100 µM | > 256 µM |  |
| O=C(CCCCOc1cc(=O)oc2ccc(Cl)cc12)NO | > 100 µM | > 256 µM |  |
| O=C(CCCCCOc1cc(=O)oc2ccc(Cl)cc12)NO | > 100 µM | > 256 µM |  |
| CCCCCCOc1cc(=O)oc2ccc(C)cc12 | > 100 µM | > 256 µM |  |
| O=C(CCCCCOc1cc(=O)oc2ccc(F)cc12)NO | 58.6 µM | > 256 µM |  |
| O=C(CCCOc1cc(=O)oc2ccc(F)cc12)NO | > 100 µM | > 256 µM |  |
| O=C(CCCCOc1cc(=O)oc2ccc(F)cc12)NO | 9.8 µM | > 256 µM |  |
| COc1ccc2c(OCCCCCCC(=O)NO)cc(=O)oc2c1 | 4.74 µM | > 256 µM |  |
| O=C(CCCCCOc1cc(=O)oc2ccccc12)NO | 69.7 µM | > 256 µM |  |
| O=C(CCCCOc1cc(=O)oc2cc(Cl)ccc12)NO | 42.3 µM | > 256 µM |  |
| O=C(CCCOc1cc(=O)oc2ccccc12)NO | 88.4 µM | > 256 µM |  |
| Cc1ccc2c(OCCCCCCC(=O)NO)cc(=O)oc2c1 | > 100 µM | > 256 µM |  |
| O=C(O)c1cn(C2CC2)c2cc(N3CCNCC3)c(F)cc2c1=O |  |  | Activity [3]: Active |

| Compound | IC50 [1] | MIC [2] | also measured |
| --- | --- | --- | --- |
| O=C(CCCCCCOc1cc(=O)oc2ccccc12)NO | 69.2 µM | > 256 µM |  |
| Cc1ccc2oc(=O)cc(OCCCCCCCC(=O)NO)c2c1 | > 100 µM | > 256 µM |  |
| Cc1ccc2c(OCCCC(=O)NO)cc(=O)oc2c1 | > 100 µM | > 256 µM |  |
| Cc1ccc2oc(=O)cc(NCCCCCCC(=O)NO)c2c1 | > 100 µM | > 256 µM |  |
| O=C(CCCOc1cc(=O)oc2ccc(Cl)cc12)NO | > 100 µM | > 256 µM |  |
| O=C(CCCCOc1cc(=O)oc2ccccc12)NO | 42.3 µM | > 256 µM |  |
| COc1ccc2oc(=O)cc(OCCCCCCC(=O)NO)c2c1 | > 100 µM | > 256 µM |  |
| O=C(CCCCCOc1cc(=O)oc2cc(Cl)ccc12)NO | > 100 µM | > 256 µM |  |
| NC[C@H]1O[C@H](O[C@H]2[C@H](O)[C@@H](O[C@H]3O[C@H](CO)[C@@H](O)[C@H](N)[C@H]3O)[C@H](N)C[C@@H]2N)[C@H](N)C[C@@H]1O [TOBRAMYCIN] |  |  | Activity [4]: Active; Activity [5]: Non-Toxic; Activity [6]: Non-Toxic; Activity [7]: Non-Toxic; Activity [8]: Non-Toxic; Activity [9]: Non-Toxic; Activity [10]: Non-Toxic; Activity [11]: Non-Toxic; Activity [12]: Non-Toxic; Activity [13]: Non-Toxic; Activity [14]: Non-Toxic; Activity [15]: Non-Toxic; Activity [16]: Non-Toxic; Activity [17]: 5.77% |
| Cc1ccc2c(OCCCCCC(=O)NO)cc(=O)oc2c1 | > 100 µM | > 256 µM |  |
| O=C(CCCCCCOc1cc(=O)oc2ccc(Br)cc12)NO | 44.4 µM | > 256 µM |  |
| CCCCCCCCOc1cc(=O)oc2ccc(C)cc12 | > 100 µM | > 256 µM |  |
| COc1ccc2c(OCCCCC(=O)NO)cc(=O)oc2c1 | > 100 µM | > 256 µM |  |
| Cc1ccc2oc(=O)cc(NCCCCCC(=O)NO)c2c1 | > 100 µM | > 256 µM |  |
| Cc1ccc2oc(=O)cc(OCCCCCC(=O)NO)c2c1 | 12.3 µM | > 256 µM |  |
| COc1ccc2c(OCCCCCC(=O)NO)cc(=O)oc2c1 | 9.37 µM | > 256 µM |  |
| O=C(CCCCCCOc1cc(=O)oc2ccc(F)cc12)NO | 26.4 µM | > 256 µM |  |
| O=C(CCCOc1cc(=O)oc2ccc(Br)cc12)NO | 70 µM | > 256 µM |  |
| Cc1ccc(OCCCCCCC(=O)NO)cc1 | > 100 µM | > 256 µM |  |
| O=C(CCCCCCOc1cc(=O)oc2ccc(Cl)cc12)NO | > 100 µM | > 256 µM |  |
| Cc1ccc2oc(=O)cc(NCCCCC(=O)NO)c2c1 | > 100 µM | > 256 µM |  |
| Cc1c(O)c(=O)ccn1C [DEFERIPRONE] |  |  | pFe(III) [18]: 20.1; Activity [19]: 7.74 µM |
| Cc1cccc(OCCCCCCC(=O)NO)c1 | > 100 µM | > 256 µM |  |
| COc1ccc2c(OCCCC(=O)NO)cc(=O)oc2c1 | > 100 µM | > 256 µM |  |
| O=C(CCCCCCOc1cc(=O)oc2cc(Cl)ccc12)NO | > 100 µM | > 256 µM |  |
| COc1ccc2oc(=O)cc(OCCCC(=O)NO)c2c1 | > 100 µM | > 256 µM |  |
